According to patent US6642392B1 (priority 1997, dated 2003):
Read-outs that look alike come from different tables or passages of the source.

What was measured:
Assay type in all cases: in vivo
Puccinia recondita = assay: Test B: wheat leaf rust, preventive spray on wheat seedlings; details: for Test B disease control rating (100 = 100% disease control, 0 = no disease control): wheat seedlings sprayed to run-off, inoculated the following day, rating relative to controls, unmarked compounds (standard test rate); for Test B disease control rating: wheat leaf rust
Summary of the method: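 Wheat seedlings were sprayed to run-off with compound (3% acetone, 250 ppm Trem 014), then inoculated with P. recondita spores the next day. They were held 24 h saturated at 20 °C, then 6 days at 20 °C. Ratings are 0–100% disease control versus controls.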

[1] = tested on: Eiysiphe graminis f. sp. tritici; assay: Test A: wheat powdery mildew, preventive spray on wheat seedlings; details: for Test A disease control rating (100 = 100% disease control, 0 = no disease control): wheat seedlings sprayed to run-off, inoculated the following day, rating relative to controls, unmarked compounds (standard test rate); for Test A disease control rating: wheat powdery mildew
Summary of the method: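 Compounds (3% acetone, 250 ppm Trem 014) sprayed to run-off on wheat seedlings, inoculated next day with spore dust. Incubated 7 days at 20° C before disease rating, 0–100% control relative to untreated controls.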

Botrytis cinerea = assay: Test E: gray mold, preventive spray on cucumber seedlings; details: for Test E disease control rating (100 = 100% disease control, 0 = no disease control): cucumber seedlings sprayed to run-off, inoculated the following day, rating relative to controls, unmarked compounds (standard test rate); for Test E disease control rating: gray mold on cucumber
Summary of the method: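 Compounds in 3% acetone were suspended with 250 ppm Trem 014 surfactant and sprayed to run-off on cucumber seedlings. B. cinerea spores were inoculated next day, then 48 h saturated humidity at 20° C and 5 days at 20° C. Disease control rated 0–100% versus controls.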

Phytophthora infestans = details: for Test D disease control rating (100 = 100% disease control, 0 = no disease control): tomato seedlings sprayed to run-off, inoculated the following day, rating relative to controls, unmarked compounds (standard test rate); for Test D disease control rating: tomato late blight
Pyricularia oryzae = details: for Test C disease control rating (100 = 100% disease control, 0 = no disease control): rice seedlings sprayed to run-off, inoculated the following day, rating relative to controls, unmarked compounds (standard test rate); for Test C disease control rating: rice blast
[2] = 100 = 100% disease control, 0 = no control, unmarked entries (standard test concentration)
[3] = 100 = 100% disease control, 0 = no control relative to controls, unmarked entries (standard test concentration)

SMILES	Test B disease control rating (Puccinia recondita; [2]) [%]	Test A disease control rating [1, 3] [%]	Test E disease control rating (Botrytis cinerea; [2]) [%]	Test D disease control rating (Phytophthora infestans; [2]) [%]	Test C disease control rating (Pyricularia oryzae; [2]) [%]	further results
CCCc1cccc(C#N)c1OCC(C)NC(=O)C1(CC)C(C)C1(Cl)Cl (mixture of isomers) [compound 255]						Test B disease control rating (100 = 100% disease control, 0 = no disease control) (Puccinia recondita): 0%; Test A disease control rating (100 = 100% disease control, 0 = no disease control) [1]: 28%; Test E disease control rating (100 = 100% disease control, 0 = no disease control) (Botrytis cinerea): 0%; Test D disease control rating (100 = 100% disease control, 0 = no disease control) (Phytophthora infestans): 0%; Test C disease control rating (100 = 100% disease control, 0 = no disease control) (Pyricularia oryzae): 74%
CC(COc1c(F)ccc(F)c1C#N)NC(=O)C(C#N)C(C)(C)C (mixture of isomers) [compound 208]	28	0	0	45	94	
CCC1(C(=O)NC(C)COn2c(C)cc(C)c2C#N)C(C)C1(Cl)Cl (mixture of isomers) [compound 136]	0	34	0	0	78	
C[C@H](COc1ccc(Br)cc1)NC(=O)C(C#N)C(C)(C)C (single isomer, unassigned) [10c]	86	0	0	35	53	
C=CCc1cc(C)ccc1OCC(C)NC(=O)C(C#N)C(C)(C)C (mixture of isomers) [compound 185]	28	0	45	9	86	
C#CC(C)(C)C(C#N)C(=O)NC(C)COc1cc(F)ccc1Cl (mixture of isomers) [compound 193]	0	0	55	0	100	
CCC1(C(=O)NC(C)COc2ccccc2Cl)C(C)C1(Cl)Cl (mixture of isomers) [81b]						Test B disease control rating (Puccinia recondita; tested at 40 ppm): 0%; Test A disease control rating ([1]; tested at 40 ppm): 85%; Test E disease control rating (Botrytis cinerea; tested at 40 ppm): 0%; Test D disease control rating (Phytophthora infestans; tested at 40 ppm): 0%; Test C disease control rating (Pyricularia oryzae; tested at 40 ppm): 74%
CCc1ccccc1OCC(C)NC(=O)C1(CC)C(C)C1(Cl)Cl (mixture of isomers) [97a]						Test B disease control rating (Puccinia recondita; tested at 40 ppm): 0%; Test A disease control rating ([1]; tested at 40 ppm): 0%; Test E disease control rating (Botrytis cinerea; tested at 40 ppm): 0%; Test D disease control rating (Phytophthora infestans; tested at 40 ppm): 20%; Test C disease control rating (Pyricularia oryzae; tested at 40 ppm): 0%
CCC(C#N)C(=O)NC(C)C(Oc1cc(F)ccc1C#N)c1ccccc1 (mixture of isomers) [compound 286]						Test B disease control rating (100 = 100% disease control, 0 = no disease control) (Puccinia recondita): 0%; Test A disease control rating (100 = 100% disease control, 0 = no disease control) [1]: 76%; Test E disease control rating (100 = 100% disease control, 0 = no disease control) (Botrytis cinerea): 0%; Test D disease control rating (100 = 100% disease control, 0 = no disease control) (Phytophthora infestans): 0%; Test C disease control rating (100 = 100% disease control, 0 = no disease control) (Pyricularia oryzae): 99%
CCC1(C(=O)NC(C)COc2ccccc2CC#N)C(C)C1(Cl)Cl (stereo not shown) [compound 103]	26	0	0	0	53	
C[C@H](COc1ccc(F)cc1Br)NC(=O)C(C#N)C(C)(C)C (single isomer, unassigned) [165a]	0	86	86	23	74	
CCC1(C(=O)NC(C)CCc2ccccc2)C(C)C1(Cl)Cl (mixture of isomers) [compound 244]						Test B disease control rating (100 = 100% disease control, 0 = no disease control) (Puccinia recondita): 0%; Test A disease control rating (100 = 100% disease control, 0 = no disease control) [1]: 86%; Test E disease control rating (100 = 100% disease control, 0 = no disease control) (Botrytis cinerea): 0%; Test D disease control rating (100 = 100% disease control, 0 = no disease control) (Phytophthora infestans): 74%; Test C disease control rating (100 = 100% disease control, 0 = no disease control) (Pyricularia oryzae): 99%
CC(COc1c(Cl)cccc1Cl)NC(=O)C(C#N)C(C)(C)C (mixture of isomers) [compound 34]	85	62	0	0	91	
CCC1(C(=O)NCC=C(C)c2ccccc2)C(C)C1(Cl)Cl (stereo not shown) [compound 268]						Test B disease control rating (100 = 100% disease control, 0 = no disease control) (Puccinia recondita): 0%; Test A disease control rating (100 = 100% disease control, 0 = no disease control) [1]: 38%; Test E disease control rating (100 = 100% disease control, 0 = no disease control) (Botrytis cinerea): 0%; Test D disease control rating (100 = 100% disease control, 0 = no disease control) (Phytophthora infestans): 88%; Test C disease control rating (100 = 100% disease control, 0 = no disease control) (Pyricularia oryzae): 91%
